Results as given in patent US20130317092A1 (priority 2007, published 2013).
Numbered stars: 1 amine (or outer) side, 2 acyl side, 3 side chain; on linkers, the order of the positions; unused ones are H or OH. Bridge positions count the residues as written; N and C are the ends. Square brackets hold non-standard residues; d marks the D form. Peptide text beside a SMILES is read from it. I, II: the chains in the order shown. Actinocin(9to1) = Cc1c2oc3c(C)ccc(C(=O)[*:1])c3nc-2c(C(=O)[*:2])c(N)c1=O; NMeV = CN[C@H](C(=O)O)C(C)C; Sar = CNCC(=O)O

How the values were obtained:
activated caspase-3 = assay: Activated caspase-3 immunostaining in Meg-01 cells; assay type: cell-based, human; conditions: for caspase-3 activation induced by Thapsi or ARP, with co-treatment: Thapsi or ARP plus inhibitor; for caspase-3 activation induced by Thapsi, with co-treatment: Thapsi plus inhibitor
AChE-R = AChE-R protein immunocytochemistry in Meg-01 cells; assay type: cell-based, human; conditions: 24 hours
AChmiRNA (miRNA-181a) = AChmiRNA (miRNA-181a) level by real-time RT-PCR in Meg-01 cells; assay type: cell-based, human; conditions: for AChmiRNA levels on co-treatment with Thapsi: Meg-01 cells co-treated with Thapsi and inhibitor; for ARP-induced decrease of AChmiRNA on co-treatment: Meg-01 cells, ARP plus inhibitor
PKCβII = PKCβII immunocytochemistry in Meg-01 cells; assay type: cell-based, human; conditions: 24 hours
AChE-R mRNA = AChE-R mRNA level (RT-PCR, fluorescent in situ hybridization) in Meg-01 cells; assay type: cell-based, human
Bcl-2 = Bcl-2 immunostaining in Meg-01 cells; assay type: cell-based, human
Meg-01 cells [1] = assay: Scanning electron microscopy of Meg-01 cell surface (megakaryocytic maturation); assay type: cell-based, human; conditions: 24 hour treatment
AChE-S = AChE-S protein immunocytochemistry in Meg-01 cells; assay type: cell-based, human; conditions: 24 hours
Meg-01 cells [2] = assay: DNA fragmentation by TUNEL assay in Meg-01 cells; assay type: cell-based, human
Meg-01 cells [3] = assay: Ploidy / DNA content of Meg-01 cells by FACS and propidium iodide; assay type: cell-based, human; conditions: 72 hours
activated caspase-9 = assay: Activated caspase-9 immunostaining in Meg-01 cells; assay type: cell-based, human
Meg-01 cells [4] = assay: Nuclear area measurement of Meg-01 cells; assay type: cell-based, human; conditions: 24 hours
[5] = system: Murine macrophage RAW 264.7 cells; assay: Nitric oxide production (nitrite, Griess) by RAW 264.7 macrophages; assay type: cell-based; conditions: LPS 1 μg/ml, IFN-γ 4 ng/ml, oligos 100 nM
Procedure: Murine macrophage RAW 264.7 cells were cultured in 48 well plates (50×10^3 cells per well). The production of NO by these macrophages was examined following various stimuli (6 repetitions for each treatment) at three time intervals (6, 12 and 24 hours) as depicted in FIGS. 27a, 27b and 27c.
Mouse RAW cells, human U937 cells and primary human macrophages were treated for 24 h with 1 μM CpG oligonucleotides or 1 μg/ml bacterial lipopolysaccharide added to standard growth medium
Interleukin 6 expression was assayed by QRT-PCR, nitric oxide was measured by Griess assay and prostaglandin E2 levels were measured by R&D ELISA kit according to manufacturer's instructions.

[6] = system: 3′UTR fragment of human AChE cDNA; assay: Dot blot hybridization of LNA-modified oligos with PCR-amplified AChE 3′UTR; assay type: binding; conditions: 5′-32P-labeled LNA-modified oligos
Procedure: The common AChE 3′-UTR sequence was obtained from AY750146 (all mRNA sequence beginning from stop codon). 3′-UTR of AChE was amplified by RT-PCR using Promega reagents and total RNA isolated with QIAGEN RNeasy kit from post-mortem human brain, with primers including XhoI, NotI restriction sites in 5′ and 3′ primer, respectively. Primer sequences used were: (5′): […], (3′) (SEQ ID NO: 111): […] (SEQ ID NO: 112). Annealing temperature of 57° C. was used. PCR product was purified with QIAGEN QiaQuick kit, size of fragment verified in agarose gel, spotted on a dry HyBond nylon membrane in 2 ul drops, cross-linked to the membrane using 1200 mJ UV burst, and baked for 1 hr at 80° C. Membrane was blocked for at least 2 hours in solution containing 50% deionized formamide, 5×SSPE, 0.5% SDS, 5×Denhardt's Solution at 50° C.; and hybridized o/night in same conditions with 5′-32P-labeled probes mimicking miRs wholly or with mismatches as indicated, washed 4 times at 37° C. in 3×SSPE, 5% SDS, 10×Denhardt's solution; once at 42° C. in 1×SSPE, 1% SDS; exposed over up to 3 days to a PhosphorImager (Molecular Dynamics/GE Healthcare) plate, and signal quantified using FujiFilm's ImageGauge 4 software.

RAW 264.7 cells = assay: NO production of LPS-challenged RAW 264.7 cells transfected with miR mimics; assay type: cell-based, murine
Procedure: Murine RAW 264.7 macrophage-derived cell line known to express TLR4 and respond to endotoxin by production of pro-inflammatory mediators such as Nitric Oxide (NO), prostaglandins, and cytokines as ILE IL6, and TNFalpha were used (described in the preceding examples e.g., Examples 7 and 8). Cells were grown in 5 ml flasks in a humidified atmosphere in Dulbecco's modified Eagle's medium (DMEM, Biological Industries) supplemented with 10% fetal calf serum (FCS) and 2 mM L-glutamine at 37° C., 5% CO2.
Griess method was used to determine NO2 levels in medium in which macrophages had been cultured. 100 μl of each sample+100 μl of Griess reagent (1% sulfanilamide/0.1% naphthylethylenediamine dihydrochloride/2.5% H3PO4)—were incubated 10-20 min at room temperature. Read absorbance at 546 nm in micro-ELISA reader.
miR 132 and 182* (SEQ ID NOs: 54 and 93, respectively) were LNA modified (products are designated with SEQ ID NOs. 107 and 108, respectively). A locked nucleic acid (LNA), often referred to as inaccessible RNA, is a modified RNA. Ribose moiety of LNA nucleotide is modified with an extra bridge connecting 2′ and 4′ carbons. The bridge “locks” the ribose in 3′-endo structural conformation, which is often found in A-form of DNA or RNA. LNA nucleotides can be mixed with DNA or RNA bases in the oligonucleotide whenever desired. The locked ribose conformation enhances base stacking and backbone pre-organization.
electroporation and lipofection were used for cell transfection.
Oligos containing LNA modifications on every third base (Table 4) were obtained from Sigma-Proligo. Transfection was performed with Lipofectamine 2000 (Invitrogen, Carlsbad, Calif.) using 3 μg of oligo per sample. Briefly, cells were brought to 80%-90% confluence at the time of transfection. For each transfection sample, 3 μg oligo were diluted in 1 ml of RPMI-1640 while the lipofectamine reagent was diluted in 1 ml of RPMI-1640. After 5 minutes the diluted oligo and lipofectamine were combined and incubated for 20 minutes. This was added to the cells within the 75 ml flask, containing 6 ml RPMI complete+GM-CSF ([…] final oligo concentration). […]
To determine cell viability 40 μl of thiazolyl blue tetrazolium bromide (MTT) reagent (Sigma) at 5 mg/ml was added per sample well, incubated for 30 minutes at 37° C. Medium was removed, 400 μl of DMSO was added per well and absorbance read at 550 nm Griess method was used to determine NO2 levels in conditioned medium from macrophage cultures. […] Absorbance was read at 546 nm in a micro-ELISA reader. TNF-α, IL-6 levels were measured by Enzyme-Linked Immunosorbent Assay (ELISA) according to manufacturer's procedures (R&D Systems kits, MTA00, M6000B, respectively). All absorbance results were normalized using standard curves. […]

CO[C@H](C/C=C\C=C\CC/C=C/C[C@H](C)/C=C/C(=C\C(=O)O)CC(=O)O)/C(C)=C\C=C(/C)C(=O)O [Bongkrekic acid]
caspase-3 activation induced by Thapsi or ARP, with co-treatment (activated caspase-3; 24 hours): inhibited the caspase-3 activation induced by ER-calcium releasing or ARP

O=S(=O)(NCCNCC=Cc1ccc(Br)cc1)c1cccc2cnccc12 [H89, N-(2-((p-Bromocinnamyl)amino)ethyl)-5-isoquinolinesulfonamide]
increase in AChE-R immunoreactivity elicited by Thapsi or ARP, with co-treatment (AChE-R): blocked the characteristic increase in AChE-R immunoreactivity | caspase-3 activation induced by Thapsi or ARP, with co-treatment (activated caspase-3; 24 hours): prevented the differentiation-associated caspase-3 activation induced by both Thapsi and ARP | AChmiRNA levels on co-treatment with Thapsi (AChmiRNA (miRNA-181a)): restored the control levels of AChmiRNA | ARP-induced decrease of AChmiRNA on co-treatment (AChmiRNA (miRNA-181a)): prevented the ARP effect

CCCCCCCCCCCCCC(=O)O[C@@H]1[C@@H](C)[C@@]2(O)[C@@H](C=C(CO)C[C@]3(O)C(=O)C(C)=C[C@@H]23)[C@@H]2C(C)(C)[C@]12OC(C)=O [PMA, phorbol 12-myristate 13-acetate]
staining intensity for PKCβ (PKCβII): increased staining intensity for PKCβ

CN(C)C(=O)Oc1ccc[n+](C)c1 [Pyridostigmine]
caspase-3 activation induced by Thapsi, with co-treatment (activated caspase-3): inhibited the activation of caspase-3 induced by Thapsi

Cc1c2oc3c(C)ccc(C(=O)N[C@@H]4C(=O)N[C@H](C(C)C)C(=O)N5CCC[C@H]5C(=O)N(C)CC(=O)N(C)[C@@H](C(C)C)C(=O)O[C@@H]4C)c3nc-2c(C(=O)N[C@@H]2C(=O)N[C@H](C(C)C)C(=O)N3CCC[C@H]3C(=O)N(C)CC(=O)N(C)[C@@H](C(C)C)C(=O)O[C@@H]2C)c(N)c1=O [actinomycin D, Actinomycin D] (I: T[dV]P[Sar][NMeV] / II: T[dV]P[Sar][NMeV]; ester I:1-I:C, II:1-II:C; linker I:N-II:N via Actinocin(9to1))
caspase-3 activation induced by Thapsi, with co-treatment (activated caspase-3): inhibited

ARP: human AChE-R C-terminal peptide GMQGPAGSGWEEGSGSPPGVTPLFSP (ARP peptide (synthetic))
AChE-R mRNA level (RT-PCR) (AChE-R mRNA; 24 hours): increased the level of AChE-R mRNA | AChE-R mRNA level by FISH (population distribution) (AChE-R mRNA; agent alone): rightward shift in the population distribution of labeling intensity | immunoreactivity of Bcl-2 (Bcl-2): decrease in the immunoreactivity of Bcl-2 | cell surface morphology (scanning electron microscopy) (Meg-01 cells [1]): induced cell surface modifications | AChE-R protein level (immunohistochemistry) (AChE-R): increase also in the protein level | expression of the AChE-S variant (immunohistochemistry) (AChE-S): decrease of expression of the AChE-S variant | DNA fragmentation / cell death (TUNEL) (Meg-01 cells [2]): no significant changes | ploidy (DNA content) (Meg-01 cells [3]): increased ploidy | staining intensity for PKCβ (PKCβII): increased staining intensity for PKCβ | incidence of activated caspase-9 positive cells (activated caspase-9): increased the incidence of positive cells for activated caspase-9 immunostaining | incidence of activated caspase-3 positive cells (activated caspase-3; 24 hours, agent alone): increased the fraction of cells immunopositive for activated caspase-3 | nuclear area / nuclei size (Meg-01 cells [4]): increased | level of AChmiRNA (AChmiRNA (miRNA-181a); Meg-01 cells treated for 24 hours, agent alone): decreased the level of AChmiRNA

Bisindolylmaleimide [BIM]
increase in AChE-R immunoreactivity elicited by Thapsi or ARP, with co-treatment (AChE-R): blocked the characteristic increase in AChE-R immunoreactivity | caspase-3 activation induced by Thapsi or ARP, with co-treatment (activated caspase-3; 24 hours): inhibited the activation of caspase-3 induced by both treatments | AChmiRNA levels on co-treatment with Thapsi (AChmiRNA (miRNA-181a)): restored the control levels of AChmiRNA | ARP-induced decrease of AChmiRNA on co-treatment (AChmiRNA (miRNA-181a)): prevented the ARP effect

IFN-γ: interferon (IFN)-γ
Nitrite concentration reflecting NO production ([5]; RAW 264.7, 6 hours): 8 µM | Nitrite concentration reflecting NO production ([5]; RAW 264.7, 12 hours): 26 µM | Nitrite concentration reflecting NO production ([5]; RAW 264.7, 24 hours): 54 µM

SEQ ID NO:20: similar oligo with an inverse sequence to AChmiON, used as negative control (CCACGUCCUCUUGCACCGUC; similar oligo to AChmiON, chemistry not explicitly stated, further chemistry not given here)
effect on the AChE splice shift (AChE-R mRNA; negative control oligo, data not shown): no significant effect on the AChE splice shift

miR-132 mut2A>G: miR-132 mimic with single mismatch in second nucleotide: TG+ACA+GTC+TAC+AGC+CAT+GGT+CG (TGACAGTCTACAGCCATGGTCG; LNA at 3, 6, 9, 12, 15, 18, 21, other sugars and backbone not given here)
binding to PCR-amplified AChE 3′UTR (dot blot signal) [6]: detectable signal only when bound to 50 ng of PCR product

miR-182* mimic: LNA-modified oligo mimicking miR-182*: TG+GTT+CTA+GAC+TTG+CCA+ACT+A (TGGTTCTAGACTTGCCAACTA; LNA at 3, 6, 9, 12, 15, 18, 21, other sugars and backbone not given here)
activation of macrophage cell lines by LPS (NO production) after transfection (RAW 264.7 cells; LPS-exposed RAW-264.7 cells transfected with oligo (Example 13)): somewhat less prominently | endotoxin response (NO production) after transfection (RAW 264.7 cells; RAW 264.7 cells transfected or electroporated, then endotoxin challenge (Example 11)): significantly attenuate endotoxin response | binding to PCR-amplified AChE 3′UTR (dot blot signal) [6]: significant binding to 20 ng doses of PCR product

miR-182* mut2G>A: miR-182* mimic with single mismatch in second nucleotide: TA+GTT+CTA+GAC+TTG+CCA+ACT+A (TAGTTCTAGACTTGCCAACTA; LNA at 3, 6, 9, 12, 15, 18, 21, other sugars and backbone not given here)
binding to PCR-amplified AChE 3′UTR (dot blot signal) [6]: disappeared altogether
